From patent US5783703A, “Sulfur-containing compounds method for their use and prodction” (Lederle (Japan), Ltd., priority 1993, dated 1998)
Values after ≈ are worked out from the molar mass of the structure shown. Like-named read-outs stand apart in the source and are kept apart here.

Assays:
E. cloacae = assay: Antibacterial activities against clinically isolated microorganism; format: cell-based; settings: Enterobacter cloacae, 14 strains clinically isolated in Japan
Protocol: (§1) The following strains clinically isolated freshly in Japan were used in this test.
(§2) 2. The test was carried out by the agar plate dilution method in accordance with the standard method of The Japanese Chemotherapy Society. The minimum inhibitory concentration (MIC) was determined in substantially the same manner as the test procedures described in Test I.

E. faecalis = assay: as above; format: cell-based; settings: Enterococcus faecalis, read-out: MIC50 against clinically isolated microorganism
Protocol: as §1, §2

K. pneumoniae = assay: as above; format: cell-based; settings: Klebsiella pneumoniae, 23 strains clinically isolated in Japan
Protocol: as §1, §2

MRSA = assay: as above; format: cell-based; settings: Staphylococcus aureus, read-out: MIC50 against clinically isolated microorganism
Protocol: as §1, §2

S. epidermidis = assay: as above; format: cell-based; settings: Staphylococcus epidermidis, 23 strains clinically isolated in Japan
Protocol: as §1, §2

S. marcescens = assay: as above; format: cell-based; settings: Serratia marcescens, 27 strains clinically isolated in Japan
Protocol: as §1
S. marcescens 27 strains
as §2

B. subtilis ATCC 6633 = assay: Antibacterial test, agar plate dilution method (MIC), standard strains; format: cell-based; settings: Bacillus subtilis, ATCC6633, MH agar, 37° C., 18 hours
Protocol: (§3) The antibacterial activities were tested by an agar plate dilution method in accordance with the standard method of The Japanese Chemotherapy Society [Chemotherapy, Vol. 29, 76-79 (1981)].
(§4) A Mueller-Hinton (MH) agar liquid medium of a test microorganism was cultured overnight at 37° C. and the resultant culture medium was diluted with a buffered saline gelatin (BSG) solution to contain approximately 10^6 cells of the test microorganisms per milliliter, and then the diluted solution was inoculated with a microplanter at the rate of approximately 5 microliters on a MH agar medium containing a test compound. This medium was then incubated at 37° C. for 18 hours. The minimum inhibitory concentration (MIC) is determined as a minimum concentration in which no test microorganism could grow. It is noted here that the test organisms used were all standard strains.

E. aerogenes ATCC 13048 = assay: as above; format: cell-based; settings: Klebsiella aerogenes, ATCC13048, MH agar, 37° C., 18 hours
Protocol: as §3, §4

E. cloacae 963 = assay: as above; format: cell-based; settings: Enterobacter cloacae, MH agar, 37° C., 18 hours
Protocol: as §3, §4

E. coli K-12 C600 = assay: as above; format: cell-based; settings: Escherichia coli, K12C600, MH agar, 37° C., 18 hours
Protocol: as §3, §4

E. coli NIHJ JC-2 = assay: as above; format: cell-based; settings: Escherichia coli, NIHJJC2, MH agar, 37° C., 18 hours
Protocol: as §3, §4

K. pneumoniae PCI-602 = assay: as above; format: cell-based; settings: Klebsiella pneumoniae, PCI602, MH agar, 37° C., 18 hours
Protocol: as §3, §4

M. luteus ATCC 9341 = assay: as above; format: cell-based; settings: Micrococcus luteus, ATCC9341, MH agar, 37° C., 18 hours
Protocol: as §3, §4

M. morganii IFO 3848 = assay: as above; format: cell-based; settings: Morganella morganii, IFO3848, MH agar, 37° C., 18 hours
Protocol: as §3, §4

P. mirabilis IFO 3849 = assay: as above; format: cell-based; settings: Proteus mirabilis, IFO3849, MH agar, 37° C., 18 hours
Protocol: as §3, §4

P. rettgeri IFO 3850 = assay: as above; format: cell-based; settings: Providencia rettgeri, IFO3850, MH agar, 37° C., 18 hours
Protocol: as §3, §4

P. vulgaris HX-19 = assay: as above; format: cell-based; settings: Proteus vulgaris, HX19, MH agar, 37° C., 18 hours
Protocol: as §3, §4

P. vulgaris OX-19 = assay: as above; format: cell-based; settings: Proteus vulgaris, OX19, MH agar, 37° C., 18 hours
Protocol: as §3, §4

S. aureus FDA209P JC-1 = assay: as above; format: cell-based; settings: Staphylococcus aureus, MH agar, 37° C., 18 hours
Protocol: as §3, §4

S. aureus MS353 = assay: as above; format: cell-based; settings: Staphylococcus aureus, MH agar, 37° C., 18 hours
Protocol: as §3, §4

S. aureus Terajima = assay: as above; format: cell-based; settings: Staphylococcus aureus, MH agar, 37° C., 18 hours
Protocol: as §3, §4

S. enteritidis G14 = assay: as above; format: cell-based; settings: Salmonella enterica, MH agar, 37° C., 18 hours
Protocol: as §3, §4

S. marcescens IAM 1184 = assay: as above; format: cell-based; settings: Serratia marcescens, IAM1184, MH agar, 37° C., 18 hours
Protocol: as §3, §4

S. paratyphi 1015 = assay: as above; format: cell-based; settings: Salmonella enterica, 18 h
Protocol: as §3, §4

S. pyogenes Cook = assay: as above; format: cell-based; settings: Streptococcus pyogenes, MH agar, 37° C., 18 hours
Protocol: as §3, §4

S. schottmuelleri 8006 = assay: as above; format: cell-based; settings: MH agar, 37° C., 18 hours
Protocol: as §3, §4

S. typhi 901 = assay: as above; format: cell-based; settings: Salmonella enterica, 18 h
Protocol: as §3, §4

S. typhimurium 11D971 = assay: as above; format: cell-based; settings: Salmonella enterica, MH agar, 37° C., 18 hours
Protocol: as §3, §4

[1] = In situ absorption from rat intestinal loop; format: in vivo, rats of Wistar strain; settings: rat jejunal loop, 20 mg/kg
Protocol: 7-week-old male rats of Wistar strain were used after fasting overnight. After anesthetizing the animals with ether, the intestine was exteriorized and an acute loop of 30 cm length was prepared from the upper part of jejunum by ligature of both ends. 0.2% physiological saline solutions of the test compounds were injected at a dose of 20 mg/kg into the loop with a syringe, and the loop was returned. About 0.4 ml blood was taken from the vena jugularis at 10, 30, 60 and 120 minutes after dosing.

[2] = Oral absorption study in mice; format: in vivo, mice of ddY strain; settings: 100 mg/kg
Protocol: 5-week-old male mice of ddY strain were used after fasting overnight. The test compounds in 1% physiological saline solution at a dose of 100 mg/kg were administered orally to a group of 2 mice. Blood was taken from the vena jugularis at 15, 30, 60 and 120 minutes after dosing.

[3] = Storage stability of the crystal at room temperature; format: physicochemical; settings: dehumidified state, one month
From the text: The 3-mercapto-1-(1,3-thiazolin-2-yl)azetidine hydrochloride (8) in the form of crystal obtained in the above Example 6 was left still in dehumidified state at a room temperature for one month.

[4] = 28 strains clinically isolated in Japan
[5] = plasma, for (32) and (33) shown as Compound (28)
[6] = mouse, plasma, for (32) and (33) shown as Compound (28)
[7] = only deesterified Compound (28) detected

Structure (SMILES)	MIC50 (E. cloacae)	MIC50 (E. faecalis)	MIC50 (K. pneumoniae)	MIC50 (S. epidermidis)	MIC50 (S. marcescens)	MIC (B. subtilis ATCC 6633)	MIC (E. aerogenes ATCC 13048)	MIC (E. cloacae 963)	MIC (E. coli K-12 C600)	MIC (E. coli NIHJ JC-2)	MIC (K. pneumoniae PCI-602)	MIC (M. luteus ATCC 9341)	MIC (M. morganii IFO 3848)	MIC (P. mirabilis IFO 3849)	MIC (P. rettgeri IFO 3850)	MIC (P. vulgaris HX-19)	MIC (P. vulgaris OX-19)	MIC (S. aureus FDA209P JC-1)	MIC (S. aureus MS353)	MIC (S. aureus Terajima)	further results
CC(C)(O/N=C(\C(=O)N[C@@H]1C(=O)N2C(C(=O)[O-])=C(C[n+]3ccccc3)CS[C@H]12)c1csc(N)n1)C(=O)O [CAZ, ceftazidime]	1.56 µg/mL (≈ 2.85 µM)	25 µg/mL (≈ 45.7 µM)	0.2 µg/mL (≈ 0.366 µM)	12.5 µg/mL (≈ 22.9 µM)	0.39 µg/mL (≈ 0.714 µM)																MIC50 (MRSA): 100 µg/mL (≈ 183 µM)
C[C@@H](O)[C@H]1C(=O)N2C(C(=O)O)=C(SC3CN(C4=NCCS4)C3)[C@H](C)[C@H]12 [Compound (28), (1R,5S,6S)-2-[1-(thiazolin-2-yl)azetidin-3-yl]thio-6-[(R)-1-hydroxyethyl]-1-methyl-carbapen-2-em-3-carboxylic acid]	0.1 µg/mL (≈ 0.261 µM)	0.39 µg/mL (≈ 1.02 µM)	0.025 µg/mL (≈ 0.0652 µM)	0.39 µg/mL (≈ 1.02 µM)	0.2 µg/mL (≈ 0.522 µM)	0.025 µg/mL (≈ 0.0652 µM)	0.1 µg/mL (≈ 0.261 µM)	0.05 µg/mL (≈ 0.13 µM)	0.1 µg/mL (≈ 0.261 µM)	0.013 µg/mL (≈ 0.0339 µM)	0.013 µg/mL (≈ 0.0339 µM)	0.2 µg/mL (≈ 0.522 µM)	0.39 µg/mL (≈ 1.02 µM)	0.39 µg/mL (≈ 1.02 µM)	0.39 µg/mL (≈ 1.02 µM)	0.1 µg/mL (≈ 0.261 µM)	0.1 µg/mL (≈ 0.261 µM)	0.013 µg/mL (≈ 0.0339 µM)	≤ 0.006 µg/mL	≤ 0.006 µg/mL	MIC (S. enteritidis G14): 0.39 µg/mL (≈ 1.02 µM); MIC (S. marcescens IAM 1184): 0.05 µg/mL (≈ 0.13 µM); MIC (S. paratyphi 1015): 0.05 µg/mL (≈ 0.13 µM); MIC (S. pyogenes Cook): ≤ 0.006 µg/mL; MIC (S. schottmuelleri 8006): 0.025 µg/mL (≈ 0.0652 µM); MIC (S. typhi 901): ≤ 0.006 µg/mL; MIC (S. typhimurium 11D971): 0.025 µg/mL (≈ 0.0652 µM); MIC50 (MRSA; [4]): 0.78 µg/mL (≈ 2.03 µM); AUC(0-t) at 2 h [1, 5]: 1000 ng·h/mL; Cmax [1, 5]: 800 ng/mL; AUC(0-t) at 2 h [2, 6]: 5000 ng·h/mL; Cmax [2, 6]: 3500 ng/mL
COCOC[C@@H]1CSC(N2CC(SC3=C(C(=O)O)N4C(=O)[C@H]([C@@H](C)O)[C@H]4[C@H]3C)C2)=N1 [Compound (31), (1R,5S,6S)-2-[1-((4R)-methoxymethyloxymethyl-1,3-thiazolin-2-yl)azetidin-3-yl]thio-6-[(R)-1-hydroxyethyl]-1-methyl-carbapen-2-em-3-carboxylic acid]						0.025 µg/mL (≈ 0.0546 µM)	0.39 µg/mL (≈ 0.852 µM)	0.2 µg/mL (≈ 0.437 µM)	0.2 µg/mL (≈ 0.437 µM)	0.05 µg/mL (≈ 0.109 µM)	0.013 µg/mL (≈ 0.0284 µM)	0.2 µg/mL (≈ 0.437 µM)	0.2 µg/mL (≈ 0.437 µM)	0.78 µg/mL (≈ 1.7 µM)	6.25 µg/mL (≈ 13.7 µM)	0.39 µg/mL (≈ 0.852 µM)	0.1 µg/mL (≈ 0.219 µM)	0.05 µg/mL (≈ 0.109 µM)	0.025 µg/mL (≈ 0.0546 µM)	≤ 0.006 µg/mL	MIC (S. enteritidis G14): 0.2 µg/mL (≈ 0.437 µM); MIC (S. marcescens IAM 1184): 0.39 µg/mL (≈ 0.852 µM); MIC (S. paratyphi 1015): 0.05 µg/mL (≈ 0.109 µM); MIC (S. pyogenes Cook): ≤ 0.006 µg/mL; MIC (S. schottmuelleri 8006): 0.2 µg/mL (≈ 0.437 µM); MIC (S. typhi 901): 0.05 µg/mL (≈ 0.109 µM); MIC (S. typhimurium 11D971): 0.1 µg/mL (≈ 0.219 µM)
CC(OC(=O)OC1CCCCC1)OC(=O)C1=C(SC2CN(C3=NCCS3)C2)[C@H](C)[C@@H]2[C@@H]([C@@H](C)O)C(=O)N12 (stereo partly drawn) [Compound (33), 1-[(cyclohexyloxy)carbonyloxy] ethyl (1R,5S,6S)-2-[1-(1,3-thiazolin-2-yl)azetidin-3-yl]thio-6-[(R)-1-hydroxyethyl]-1-methylcarbapen-2-em-3-carboxylate]																					plasma level of the administered ester itself [1, 7]: undetectable; plasma level of the administered ester itself [2, 7]: undetectable
C[C@@H](O)[C@H]1C(=O)N2C(C(=O)O)=C(SCCN=CN)C[C@H]12 [Imipenem, imipenem]	0.2 µg/mL (≈ 0.668 µM)	0.78 µg/mL (≈ 2.61 µM)	0.2 µg/mL (≈ 0.668 µM)	0.2 µg/mL (≈ 0.668 µM)	1.56 µg/mL (≈ 5.21 µM)																MIC50 (MRSA; [4]): 3.13 µg/mL (≈ 10.5 µM)
Cl.SC1CN(C2=NCCS2)C1 [compound (8), 3-mercapto-1-(1,3-thiazolin-2-yl)azetidine hydrochloride]																					purity after storage (storage stability) [3]: did not change at all
